Laboratory results as given in patent publication US20190365719A1, “COMBINATION TREATMENTS OF HSP90 INHIBITORS FOR ENHANCING TUMOR IMMUNOGENICITY AND METHODS OF USE THEREOF” (Massachusetts Institute of Technology, priority 2018, published 2019).

System: MC38 cells
Assay: MHC Class I peptide profiling of MC38 cells by immunoprecipitation and mass spectrometry
Assay type: cell-based, mouse
Experimental: MC38 cells were cultured as described above. 10-10 cm (˜1×10^8 cells) plates of MC38 cells were cultured for 72 hours in 0.1% DMSO or 50 nM HSP990. At the time of harvest, plates were washed 1× in PBS, and then cells were lifted using PBS+2 mM EDTA. Cells were then pelleted at 500 g for 5 min and the pellets washed twice more with ice cold PBS. Pellets were then resuspended in 1 mL IP lysis buffer ([…] Tris pH 7.5, 150 mM NaCl, 1% CHAPS, 0.2 mM PMSF, 1× HALT protease/phosphatase inhibitors (Pierce). Lysates were then sonicated with a microtip sonicator for 3×10 s pulses to further disrupt cell membranes, and then centrifuged at 14 k g for 10 min. The supernatant was then quantified at 10 mg total protein lysate was used for the MHC Class IIP.
Peptide MHC isolation was performed using a modified immunoprecipitation and protein filtration protocol, as previously described. […]
Peptides were eluted using a 130 minute gradient with 10-45% buffer B (70% Acetonitrile, 0.2M acetic acid) from 5-100 minutes and 45-55% from 100-120 minutes at a flow rate of 0.2 mL/min for a flow split of approximately 10,000:1. Peptides were analyzed using a Thermo Q Exactive HF-X Hybrid Quadrupole-Orbitrap mass spectrometer. […] Full-scan mass spectrometry spectra [mass/charge ratio (m/z), 350 to 2,000; resolution, 60,000] were detected in the Orbitrap analyzer after accumulation of ions at 3e6 target value. […]

COc1cccc(-c2cc(F)ccc2[C@H]2Cc3nc(N)nc(C)c3C(=O)N2)n1 [NVP-HSP990]
MHC-I peptide repertoire compared to IFNγ: induced a distinct repertoire of MHC-I peptides | number of unique MHC Class I peptides identified (50 nM HSP990, 72 hours, 557 from vehicle-treated cells): 1005
